Data reported in patent US11840527B2, “Non-fused thiophene derivatives and their uses” (ENYO PHARMA, priority 2018, dated 2023).

Key:
[1] = test system: H1N1 (influenza A/New Caledonia/20/99); assay: Antiviral effect on A549 cells infected with H1N1; assay type: cell-based, H1N1 A/New Caledonia/20/99 virus; conditions: Influenza A virus, MOI 0.1, 48 h post-infection, MUNANA neuraminidase readout
In short: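 A549 cells dosed with test compounds over a concentration range and infected at once with clinical isolate H1N1 A/New Caledonia/20/99 (MOI 0.1) in DMEM with […] TPCK trypsin, 37 °C. At 48 h, supernatant neuraminidase activity measured with MUNANA substrate (1 h, 37 °C); 4-MU fluorescence at ex 365/em 450 nm.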

[2] = target: T1, CISD2 Gene Product (NAF-1) (Homo sapiens, UniProt Q8N5K1); assay: Stability of Fe-S cluster binding of purified NEET protein (absorbance 458 nm); assay type: biochemical
T1 sequence (Q8N5K1 57-135 limits assumed): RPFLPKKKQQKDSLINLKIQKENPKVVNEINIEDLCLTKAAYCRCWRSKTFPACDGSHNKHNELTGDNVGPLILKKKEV
Procedure: (§1) The modulator effect on the NEET proteins encoded by human CISD1, CISD2, and CISD3 genes by the compounds of the invention has been tested and is reported below. Particularly, the biochemical function of the NEET proteins is measured by the stability of Fe—S cluster binding of the purified NEET proteins.
(§2) The Fe—S cluster binding capacity of NEET proteins is known to be coordinated by four amino-acids in a stretch of 16 (three Cysteine and one Histidine). As the lability of the Fe—S cluster of NEET proteins is sensitive to the environment, cluster stability measurements are one of the measures of interactions of NEET proteins with small molecules and compounds. NEET protein/2Fe-2S cluster stability can be assessed by monitoring the decay in absorbance of its characteristic 458-nm peak (characteristic of the oxidized 2Fe-2S cluster) over time. Each NEET protein (mitoNEET, NAF-1 and Miner 2) was tested for its Fe—S binding in the absence or presence of a compound according to the invention (see table 3 below). The rate of cluster release (time in minutes to achieve 50% loss of bound Fe—S cluster) was compared for each NEET protein in the presence of one of the compounds of the invention (in a 1:3 protein:compound molar ratio) relative to each protein alone.
(§3) At pH 6, all the three NEET proteins (mitoNEET, NAF-1 and Miner 2) have a characteristic rate of loss of the bound Fe—S cluster that can be measured by the decrease of absorbance at wavelength 458 nm over time, using a spectrophotometer. Thus, Bis-Tris buffer (100 mM Bis-Tris pH6, 100 mM Nacl) was used at pH 6 to dilute either DMSO (Blank sample: Bis-Tris Buffer pH 6, 66 μM DMSO), DMSO and one of the three NEET proteins (Control sample: Bis-Tris Buffer pH 6, 66 μM DMSO, 20 μM purified NEET protein) or DMSO, one of the three NEET proteins and a compound of the invention (Test sample: Bis-Tris Buffer pH 6, 66 μM DMSO, 20 μM purified NEET protein, 60 μM compound of the invention).
(§4) A reaction mix containing DMSO diluted in the Bis-Tris Buffer with or without a compound of the invention was prepared. The purified NEET protein was the last component added to the reaction mix which was then aliquoted into 4 replicates in 96 wells plates. The absorbance at wavelength 458 nm was taken at 5 minutes intervals at 37° C. with a spectrofluorimeter. The assay run time for CISD2 gene product (NAF-1) was 500 minutes and 180 minutes for both the CISD 1 gene product (mitoNEET) and the CISD3 gene product (Miner 2).
(§5) In addition to time monitoring, residual bound Fe—S cluster to NEET protein was measured at the final point of the spectrometry assay for each Test sample and compared to the Control sample data (in parenthesis table 3). This residual binding is measured by the differential percentage between the absorbance 458 nm at time zero and the absorbance 458 nm at the end of the experiment (i.e. respectively 500 or 180 minutes as described hereabove), showing the percentage of NEET protein still able to bind Fe—S cluster.
(§6) Analysis of the absorbance enables the time for which 50% loss of bound Fe—S cluster is reached (i.e. a 50% absorbance decrease at 458 nm) for each Test sample and each Control sample (in parenthesis table 3) to be determined. The data are then compared to determine whether the compound of the invention stabilizes or destabilizes the NEET protein/Fe—S cluster binding.
(§7) Stabilisers of Fe—S cluster binding by the NEET proteins slow the release of bound Fe—S (i.e. increase the time needed to reach 50% Fe—S cluster bound loss by more than 25% for the Test sample compared to the Control sample). As illustrated by table 3, at the concentrations tested, stabilisers of CISD1 Gene Product (mitoNEET) are the compounds #9, #18, #26, #2, #1, and #42. Stabilisers of CISD2 Gene Product (NAF-1) are the compounds #2, #1, and #40. Stabilisers of CISD3 Gene Product (Miner2) are the compounds #9, #18, #26, #2, #1, and #42.

[3] = target: T2, CISD3 Gene Product (Miner2) (Homo sapiens, UniProt P0C7P0); assay: as above; assay type: biochemical
T2 sequence (P0C7P0 15-127): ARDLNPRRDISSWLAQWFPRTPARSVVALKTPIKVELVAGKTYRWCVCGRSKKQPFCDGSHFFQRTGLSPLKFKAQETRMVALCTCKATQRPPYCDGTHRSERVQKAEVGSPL
Procedure: as §1, §2, §3, §4, §5, §6, §7

[4] = target: T3, CISD1 Gene Product (mitoNEET) (Homo sapiens, UniProt Q9NZ45); assay: as above; assay type: biochemical
T3 sequence (Q9NZ45 33-108 limits assumed): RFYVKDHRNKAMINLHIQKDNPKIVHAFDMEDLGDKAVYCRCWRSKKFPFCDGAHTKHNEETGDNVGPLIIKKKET
Procedure: as §1, §2, §3, §4, §5, §6, §7

O=C(Nc1scc(-c2ccc(Cl)c(F)c2)c1C(=O)O)c1ccccc1 [Compound #2, 2-Benzamido-4-(4-chloro-3-fluoro-phenyl)thiophene-3-carboxylic acid]
IC50 [1]: 210 nM
Residual cluster bound at end of experiment (Percentage Absorbance 458 nm at time zero) ([2]; at 500 minutes, 60 μM compound, vehicle control 3%): 18% (3%)
Stabiliser of Fe—S cluster binding (time to 50% loss increased by more than 25% vs control) ([2]; at the concentrations tested): Stabilisers
Time (in minutes) to achieve 50% loss of bound cluster (Absorbance 458 nm) ([2]; pH 6, 37° C., 20 μM protein, 60 μM compound, run time 500 minutes, vehicle control 310): during 500 minutes
Residual cluster bound at end of experiment (Percentage Absorbance 458 nm at time zero) ([3]; CISD3 gene product, at 180 minutes, 60 μM compound, vehicle control (DMSO) 11%): 52% (11%)
Stabiliser of Fe—S cluster binding (time to 50% loss increased by more than 25% vs control) ([3]; Miner2, at the concentrations tested): Stabilisers
Time (in minutes) to achieve 50% loss of bound cluster (Absorbance 458 nm) ([3]; Miner2, pH 6, 37° C., 20 μM protein, 60 μM compound, run time 180 minutes, vehicle control 60): during 180 minutes
Residual cluster bound at end of experiment (Percentage Absorbance 458 nm at time zero) ([4]; at 180 minutes, 60 μM compound, vehicle control 16%): 36% (16%)
Stabiliser of Fe—S cluster binding (time to 50% loss increased by more than 25% vs control) ([4]; at the concentrations tested): stabilisers
Time (in minutes) to achieve 50% loss of bound cluster (Absorbance 458 nm) ([4]; pH 6, 37° C., 20 μM protein, 60 μM compound, run time 180 minutes, vehicle control 80): during 180 minutes
